The values below come from publication PMC8224398, “SARS-CoV-2 mutations in MHC-I-restricted epitopes evade CD8^+ T cell responses” (Science Immunology, 2021).

One assay deals with HLA-A*02:01 (Homo sapiens, UniProt P04439, D140Y/D185E/D98H/E176V/E277Q/G131W/G231S/I119V/I121R/I166T/I218V/L300P/L318F/N151K/N90K/P208A/P217A/Q86G/Q94H/R138H/R169H/T345S). Type of assay: binding.
Another assay concerns the target HLA-B*40:01 (Homo sapiens, UniProt P01889, A65T/A93T/A95T/D138N/D98Y/E176V/E69K/N87E/Q56L/Q94N/R180L/S121R/S35A/S48T/T167S/V36M/W171L/Y33H/Y91S). Format: binding.
Assay [1] deals with autologous EBV+ B cells pulsed with peptide. Type of assay: cell-based, human. Conditions: 5 h at 37°C.

LALLLLDRL: at HLA-A*02:01, the “binding to HLA-A*02:01 (thermal stability of the peptide-MHC-I complex, DSF)” value is reported as “did neither observe binding”.
As for LFFNKVTLA, at HLA-A*02:01, the “binding to HLA-A*02:01 (thermal stability of the peptide-MHC-I complex, DSF)” value was “non-binder”.
Still for that read-out and setting: in the case of LQLPQGTTL it was “did neither observe binding”.
As for MEVTPSGTWL, the “binding to HLA-A*02:01 (thermal stability of the peptide-MHC-I complex, DSF)” value at HLA-A*02:01 was “not to HLA-A*02:01”. Further, the “binding to recombinant HLA-B*40:01 (DSF)” value on HLA-B*40:01 is listed as “specific binding”.
Turning to YFQPRTFLL [YLQ mutant], in assay [1], the “killing of EBV+ B cells pulsed with the peptide by wild type YLQ expanded PBMCs” value is reported as “failed to kill”; the “killing of peptide-pulsed EBV+ B cells by PBMCs expanded with the peptide” value was “failed to kill both wild type and mutant peptide pulsed EBV^+ B cells”. Also, the “binding to HLA-A*02:01 (thermal stability of the peptide-MHC-I complex, DSF)” value at HLA-A*02:01 is recorded as “weak binder”.
For YLQPRTFLL [YLQ wildtype], the “killing of EBV+ B cells pulsed with the peptide by wild type YLQ expanded PBMCs” value in assay [1] is recorded as “specific killing”.
